# Experimental data: patent US20240317744A1, “Bicyclic Ureas As Kinase Inhibitors” (Incyte Corporation, priority 2023, published 2024)
# Assays:
# [1] = target: T1, pseudo-kinase domain (JH2, amino-acids 536-812) of human V617F mutant JAK2 (Homo sapiens, UniProt O60674, F794H/V617F/W659A/W777A); assay: JAK2 LanthaScreen JH2-V617F Binding Assay; conditions: JAK2 JH2-V617F 0.26 nM, 50 nM tracer, 1 hour at 25° C.; read-out: JH2 BIND V617F
# T1 construct: pseudo-kinase domain (JH2, amino-acids 536-812 with 3 surface mutations W659A, W777A, F794H); His (C); purchased BPS Bioscience 79498; host or cells: baculovirus expression system
# T1 sequence (O60674 536-812 V617F/W659A/W777A/F794H): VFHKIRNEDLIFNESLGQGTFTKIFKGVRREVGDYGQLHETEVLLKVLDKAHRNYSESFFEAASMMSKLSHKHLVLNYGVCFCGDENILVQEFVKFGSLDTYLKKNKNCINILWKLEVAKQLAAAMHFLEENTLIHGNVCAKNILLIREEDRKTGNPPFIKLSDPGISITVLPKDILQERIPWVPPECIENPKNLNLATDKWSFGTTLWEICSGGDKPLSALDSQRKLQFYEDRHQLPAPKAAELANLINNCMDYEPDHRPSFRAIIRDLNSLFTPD
# Experimental: Example C. JAK2 LanthaScreen JH2-V617F Binding Assay
# JAK2 JH2-V617F binding assay utilizes pseudo-kinase domain (JH2, amino-acids 536-812 with 3 surface mutations W659A, W777A, F794H) of human V617F mutant JAK2 expressed as C-terminal His-Avi-tagged, biotinylated protein in a baculovirus expression system (BPS Bioscience, Catalog #79498). The assay was conducted in black 384-well polystyrene plates in a final reaction volume of 20 μL. JAK2 JH2-V617F (0.26 nM) was incubated with compounds (100 nL serially diluted in DMSO) in the presence of 50 nM Fluorescent JAK2-JH2 Tracer (MedChem Express Catalog #HY-102055) and 0.25 nM Streptavidin-Tb cryptate (Cisbio Part #610SATLB) in assay buffer (50 mM Tris, pH=7.5, 10 mM MgCl2, 0.01% Brij-35, 0.1% BSA, 1 mM EGTA, 5% Glycerol and 5 mM DTT). Non-specific binding was accessed in the presence of 2 mM ATP. After incubation for 1 hour at 25° C., LanthaScreen signals were read on a PHERAstar FS plate reader (BMG LABTECH). Data was analyzed with IDBS XLfit and GraphPad Prism 5.0 software using a four parameter dose response curve to determine IC50 for each compound.
# [2] = target: catalytic domain (JH1, amino acids 808-1132) of human JAK2 (Homo sapiens, UniProt O60674); assay: JAK2 HTRF Enzyme Activity Assay; format: biochemical; conditions: ATP 30 µM, 60 minutes at 25° C.; read-out: V617F ENZ 30 UM
# catalytic domain (JH1, amino acids 808-1132) of human JAK2, sequence (O60674 808-1132 limits assumed): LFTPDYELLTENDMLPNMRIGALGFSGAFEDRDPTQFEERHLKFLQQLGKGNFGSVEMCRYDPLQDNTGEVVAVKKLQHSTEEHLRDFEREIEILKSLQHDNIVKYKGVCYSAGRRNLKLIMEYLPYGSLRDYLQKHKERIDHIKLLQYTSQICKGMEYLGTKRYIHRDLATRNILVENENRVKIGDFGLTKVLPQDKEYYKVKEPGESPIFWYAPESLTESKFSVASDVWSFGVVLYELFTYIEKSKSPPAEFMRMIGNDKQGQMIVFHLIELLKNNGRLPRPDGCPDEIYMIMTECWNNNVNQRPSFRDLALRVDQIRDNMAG
Compound,IC50 [1] [nM],IC50 [2] [nM]
"[2H]C1(NC(=O)OC)CC[C@@H](n2c(=O)n(C([2H])([2H])[2H])c3cnc(Nc4ccc5nn(CC6(C#N)CC6)c(-c6cnn(C(F)(F)F)c6)c5n4)cc32)C1 (stereo partly drawn) [Example 134, Methyl ((3R)-3-(6-((2-((1-cyanocyclopropyl)methyl)-3-(1-(trifluoromethyl)-1H-pyrazol-4-yl)-2H-pyrazolo[4,3-b]pyridin-5-yl)amino)-3-(methyl-d3)-2-oxo-2,3-dihydro-1H-imidazo[4,5-c]pyridin-1-yl)cyclopentyl-1-d)carbamate]",≤ 10,> 1000
"[2H]C([2H])([2H])NC(=O)C12CCC(n3c(=O)n(C([2H])([2H])[2H])c4cnc(Nc5cc(C(C)(C)O)cc(-c6ncc(C(F)(F)F)s6)n5)cc43)(CC1)CC2 [Example 137, 4-(6-((4-(2-Hydroxypropan-2-yl)-6-(5-(trifluoromethyl)thiazol-2-yl)pyridin-2-yl)amino)-3-(methyl-d3)-2-oxo-2,3-dihydro-1H-imidazo[4,5-c]pyridin-1-yl)-N-(methyl-d3)bicyclo[2.2.2]octane-1-carboxamide]",≤ 10,> 1000
"[2H]C([2H])([2H])n1c(=O)n(C23CCC(C(=O)NC4CC4)(CC2)CC3)c2cc(Nc3cc(C(C)(C)O)cc(-c4ncc(C(F)(F)F)s4)n3)ncc21 [Example 138, N-Cyclopropyl-4-(6-((4-(2-hydroxypropan-2-yl)-6-(5-(trifluoromethyl)thiazol-2-yl)pyridin-2-yl)amino)-3-(methyl-d3)-2-oxo-2,3-dihydro-1H-imidazo[4,5-c]pyridin-1-yl)bicyclo[2.2.2]octane-1-carboxamide]",≤ 10,> 1000
"[2H]C([2H])([2H])n1c(=O)n([C@@H]2CC[C@](C)(NC(C)=O)C2)c2cc(Nc3cc(C(C)(C)O)cc(-c4cnc(C(F)(F)F)s4)n3)ncc21 [Example 146, N-((1S,3R)-3-(6-((4-(2-Hydroxypropan-2-yl)-6-(2-(trifluoromethyl)thiazol-5-yl)pyridin-2-yl)amino)-3-(methyl-d3)-2-oxo-2,3-dihydro-1H-imidazo[4,5-c]pyridin-1-yl)-1-methylcyclopentyl)acetamide]",≤ 10,> 1000
"[2H]C1(NC(=O)OC)CC[C@@H](n2c(=O)n(C([2H])([2H])[2H])c3cnc(Nc4ccc5c(n4)c(-c4cnn(C(F)(F)F)c4)nn5C4CCOCC4)cc32)C1 (stereo partly drawn) [Example 132, Methyl ((3R)-3-(3-(methyl-d3)-2-oxo-6-((1-(tetrahydro-2H-pyran-4-yl)-3-(1-(trifluoromethyl)-1H-pyrazol-4-yl)-1H-pyrazolo[4,3-b]pyridin-5-yl)amino)-2,3-dihydro-1H-imidazo[4,5-c]pyridin-1-yl)cyclopentyl-1-d)carbamate]",≤ 10,> 1000
"[2H]C1(NC(=O)OC)CC[C@@H](n2c(=O)n(C([2H])([2H])[2H])c3cnc(Nc4ccc5c(n4)c(-c4cnn(C(F)(F)F)c4)nn5CC4(C#N)CC4)cc32)C1 (stereo partly drawn) [Example 133, Methyl ((3R)-3-(6-((1-((1-cyanocyclopropyl)methyl)-3-(1-(trifluoromethyl)-1H-pyrazol-4-yl)-1H-pyrazolo[4,3-b]pyridin-5-yl)amino)-3-(methyl-d3)-2-oxo-2,3-dihydro-1H-imidazo[4,5-c]pyridin-1-yl)cyclopentyl-1-d)carbamate]",≤ 10,> 1000
"[2H]C([2H])([2H])n1c(=O)n([C@H]2C[C@H](NC(=O)OC)[C@@H](O)C2)c2cc(Nc3cc(C(C)(C)O)cc(-c4ncc(C(F)(F)F)s4)n3)ncc21 [Example 155, Methyl ((1S,2S,4S)-2-hydroxy-4-(6-((4-(2-hydroxypropan-2-yl)-6-(5-(trifluoromethyl)thiazol-2-yl)pyridin-2-yl)amino)-3-(methyl-d3)-2-oxo-2,3-dihydro-1H-imidazo[4,5-c]pyridin-1-yl)cyclopentyl)carbamate]",≤ 10,> 1000
"[2H]C([2H])([2H])n1c(=O)n([C@@H]2CC[C@](C)(NC(=O)CC)C2)c2cc(Nc3cc(C(C)(C)O)cc(-c4ncc(C(F)(F)F)s4)n3)ncc21 [Example 143, N-((1S,3R)-3-(6-((4-(2-Hydroxypropan-2-yl)-6-(5-(trifluoromethyl)thiazol-2-yl)pyridin-2-yl)amino)-3-(methyl-d3)-2-oxo-2,3-dihydro-1H-imidazo[4,5-c]pyridin-1-yl)-1-methylcyclopentyl)propionamide]",≤ 10,> 1000
"[2H]C([2H])([2H])n1c(=O)n([C@@H]2CC[C@@]([2H])(NC(=O)OC)C2)c2cc(Nc3cc(C)cc(-c4ncc(C(C)(C)O)s4)n3)ncc21 [Example 148, Methyl ((1R,3R)-3-(6-((6-(5-(2-hydroxypropan-2-yl)thiazol-2-yl)-4-methylpyridin-2-yl)amino)-3-(methyl-d3)-2-oxo-2,3-dihydro-1H-imidazo[4,5-c]pyridin-1-yl)cyclopentyl-1-d)carbamate]",≤ 10,> 1000
"[2H]C1(NC(=O)OC)CC[C@@H](n2c(=O)n(C([2H])([2H])[2H])c3cnc(Nc4cc(C(C)(C)O)c5ccn(-c6cnn(C(F)(F)F)c6)c5n4)cc32)C1 (stereo partly drawn) [Example 131, Methyl ((3R)-3-(6-((4-(2-hydroxypropan-2-yl)-1-(1-(trifluoromethyl)-1H-pyrazol-4-yl)-1H-pyrrolo[2,3-b]pyridin-6-yl)amino)-3-(methyl-d3)-2-oxo-2,3-dihydro-1H-imidazo[4,5-c]pyridin-1-yl)cyclopentyl-1-d)carbamate]",≤ 10,> 1000
"[2H]C([2H])([2H])n1c(=O)n([C@@H]2CC[C@@H](NC(=O)OC)C2)c2cc(Nc3ccc4c(n3)c(-c3cnn(C(F)(F)F)c3)cn4C3CCOCC3)ncc21 [Example 109, Methyl ((1R,3R)-3-(3-(methyl-d3)-2-oxo-6-((1-(tetrahydro-2H-pyran-4-yl)-3-(1-(trifluoromethyl)-1H-pyrazol-4-yl)-1H-pyrrolo[3,2-b]pyridin-5-yl)amino)-2,3-dihydro-1H-imidazo[4,5-c]pyridin-1-yl)cyclopentyl)carbamate]",≤ 10,> 1000
"[2H]C([2H])([2H])n1c(=O)n([C@@H]2CC[C@](C)(NC(=O)C3CC3)C2)c2cc(Nc3ccc4nn(CC(C)(C)O)c(-c5cnn(C(F)(F)F)c5)c4n3)ncc21 [Example 123, N-((1S,3R)-3-(6-((2-(2-Hydroxy-2-methylpropyl)-3-(1-(trifluoromethyl)-1H-pyrazol-4-yl)-2H-pyrazolo[4,3-b]pyridin-5-yl)amino)-3-(methyl-d3)-2-oxo-2,3-dihydro-1H-imidazo[4,5-c]pyridin-1-yl)-1-methylcyclopentyl)cyclopropanecarboxamide]",≤ 10,> 1000
"[2H]C([2H])([2H])n1c(=O)n([C@@H]2CC[C@](C)(NC(C)=O)C2)c2cc(Nc3cc(C(C)(C)O)cc(-c4cnc(OC(C)C)s4)n3)ncc21 [Example 151, N-((1S,3R)-3-(6-((4-(2-hydroxypropan-2-yl)-6-(2-isopropoxythiazol-5-yl)pyridin-2-yl)amino)-3-(methyl-d3)-2-oxo-2,3-dihydro-1H-imidazo[4,5-c]pyridin-1-yl)-1-methylcyclopentyl)acetamide]",≤ 10,> 1000
